From US11603377B2, “MTORC1 modulators and uses thereof” (Aeovian Pharmaceuticals, Inc., priority 2020, dated 2023)

Experiments:
FKBP12 = FKBP12 (Homo sapiens (Human), UniProt P62942); test: SPR assay to determine binding affinity to FKBP12 (direct binding); conditions: immobilized biotinylated avi-FKBP12
Protocol: SPR Assay to Determine Binding Affinity to FKBP12.
Biotinylated avi-FKBP12 was immobilized on a streptavidin chip (Cytiva Series S SA) using a Biacore 8K or 8 k+ (Cytiva). To achieve an immobilization level of 1000 RU, 2 μg/ml biotinylated avi-FKBP12 were injected for 100 sec at a flow rate of 10 μl/min. Rapalogs were diluted in DMSO to 100× working concentration. Each Rapalog was 100-fold diluted in 50 mM HEPES pH 7.5, 150 mM NaCl, 2 mM MgCl2, 1 mM DTT, 0.05% Tween-20 and a serial dilution prepared (9 concentrations, 3-fold dilutions, 0.08-500 nM). […] The compound dilutions were then injected at 100 uL/min for 120 seconds contact time in sequence with increasing concentrations. Dissociation was monitored for 3600 seconds. 50 mM HEPES pH 7.5, 150 mM NaCl, 2 mM MgCl2, 1 mM DTT, 0.05% Tween-20, 1% DMSO was used as running buffer. The single-cycle kinetics data were fit to a 1:1 binding model to measure the association rate ka (1/Ms), the dissociation rate kd (1/s) and the affinity Kd (M).

FKBP51 = FKBP51 (Homo sapiens (Human), UniProt Q13451); test: SPR assay to determine binding affinity to FKBP51 (direct binding); conditions: immobilized biotinylated avi-FKBP51
Chain of FKBP51 (Q13451 whole entry): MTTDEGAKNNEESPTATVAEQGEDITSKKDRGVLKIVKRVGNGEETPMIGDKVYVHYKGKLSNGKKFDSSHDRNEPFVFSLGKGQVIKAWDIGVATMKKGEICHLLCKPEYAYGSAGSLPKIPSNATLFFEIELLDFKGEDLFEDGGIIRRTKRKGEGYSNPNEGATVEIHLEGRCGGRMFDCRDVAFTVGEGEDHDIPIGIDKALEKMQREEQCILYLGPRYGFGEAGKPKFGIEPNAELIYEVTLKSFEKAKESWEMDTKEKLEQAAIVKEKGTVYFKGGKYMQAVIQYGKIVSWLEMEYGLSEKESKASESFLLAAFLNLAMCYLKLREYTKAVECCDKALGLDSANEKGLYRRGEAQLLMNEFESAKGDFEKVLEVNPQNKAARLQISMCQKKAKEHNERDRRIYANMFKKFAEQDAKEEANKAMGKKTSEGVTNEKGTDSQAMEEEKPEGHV
Protocol: Example 29: SPR Assay to Determine Binding Affinity to FKBP51
Biotinylated avi-FKBP51 was immobilized on a streptavidin chip (Cytiva Series S SA) using a Biacore 8K or 8 k+ (Cytiva). To achieve an immobilization level of 2000 RU, 3 μg/ml biotinylated avi-FKBP51 were injected for 360 sec at a flow rate of 10 μl/min. Rapalogs were diluted in DMSO to 100× working concentration. Each Rapalog was 100-fold diluted in 50 mM HEPES pH 7.5, 150 mM NaCl, 2 mM MgCl2, 1 mM DTT, 0.05% Tween-20 and a serial dilution prepared (8 concentrations, 3-fold dilutions, 0.5-1000 nM). […] The compound dilutions were then injected at 100 uL/min for 120 seconds contact time and with 3600 seconds dissociation time with increasing concentrations. 50 mM HEPES pH 7.5, 150 mM NaCl, 2 mM MgCl2, 1 mM DTT, 0.05% Tween-20, 1% DMSO was used as running buffer. Multi-cycle kinetics data were fit to a 1:1 binding model to measure the association rate ka (1/Ms), the dissociation rate kd (1/s) and the affinity Kd (M).

[1] = molecular target: FKBP12 / FRB ternary complex (Homo sapiens (Human), UniProt P42345+P62942); test: SPR assay to characterize ternary complex formation with FKBP12 (FRB binding to rapalog-saturated FKBP12); conditions: FRB dilutions with 100 nM rapalog on immobilized FKBP12
Protocol: Example 30: SPR Assay to Characterize Ternary Complex Formation with FKBP12
(§1) Biotinylated avi-FKBP12 was immobilized on a streptavidin chip (Cytiva Series S SA) using a Biacore 8K or 8 k+ (Cytiva). To achieve an immobilization level of 100 RU, 0.3 μg/ml biotinylated avi-FKBP12 were injected for 80 sec at a flow rate of 10 μl/min. Serial dilution of FRB was prepared (12 concentrations, 3-fold dilutions, 0.00011-20 μM) and supplemented with 100 nM of rapalog. A-B-A injection mode was used to ensure saturation immobilized FKBP12 with respective rapalog. 100 nM solution of the respective rapalog was injected before FRB injection for 120 sec and during dissociation for 420 sec. The FRB dilutions were then injected 120 seconds contact time with increasing concentrations. […] 50 mM HEPES pH 7.5, 150 mM NaCl, 2 mM MgCl2, 1 mM DTT, 0.05% Tween-20, 1% DMSO was used as running buffer at a flow rate of 30 μl/min. The multi-cycle kinetics data were fit to a 1:1 binding model to measure the association rate ka (1/Ms), the dissociation rate kd (1/s) and the affinity Kd (M). In case of fast association and dissociation, steady state affinity analysis following the law of mass action was used to determine the affinity Kd (M).

[2] = molecular target: FKBP51 / FRB ternary complex (Homo sapiens (Human), UniProt P42345+Q13451); test: SPR assay to characterize ternary complex formation with FKBP51 (FRB binding to rapalog-saturated FKBP51); conditions: FRB dilutions with 100 nM rapalog on immobilized FKBP51
Protocol: Example 31: SPR Assay to Characterize Ternary Complex Formation with FKBP51
as §1, with “Biotinylated avi-FKBP51” for “Biotinylated avi-FKBP12”, “of 200” for “of 100”, “RU, 0.6” for “RU, 0.3”, “biotinylated avi-FKBP51” for “biotinylated avi-FKBP12”, “for 150” for “for 80”

mTORC1 = mTORC1 (Homo sapiens (Human), UniProt P42345+P62942); test: mTORC1 inhibition, AlphaLISA of Phospho-p70 S6 kinase (p70S6K pT389) in PC-3 cells; type: cell-based; conditions: inhibition of p70S6K pT389 levels
mTORC2 = mTORC2 (Homo sapiens (Human), UniProt P42345+P62942); test: mTORC2 inhibition, AlphaLISA of Phospho-AKT (pAKT pS473) in PC3 cells; type: cell-based
Protocol: Example 32: mTORC1 Inhibition, mTORC2 Inhibition, Cell Lysis, AlphaLISA Experiments, and Data Analysis
mTORC2 inhibition was determined via analysis of phosphorylation level of Phospho-AKT (pAKT pS473) with the corresponding AlphaLISA kit (PerkinElmer, Alpha SF Ultra™ Multiplex p-AKT1/2/3(Ser473)/Total AKT1). PC3 cells were plated on 96 well plates in assay medium (DMEM: Ham's F12, basic (CLS Cell Lines Service GmbH, Cat #820400a), supplemented with additional 10% FBS at 1.20E+06 cells/mL and incubated over-night at 37° C., 5% CO2. On the following day, cells were treated with assay medium (10% FBS) containing increasing compound concentrations (12 points at 3-fold dilutions) and incubated for 6 hours at 37° C., 5% CO2. Thereafter, medium was aspirated and cells were rinsed with PBS. In the following, cells were treated with compound dilutions in starvation medium (DMEM: Ham's F12, basic; without FBS) for further 18 h at 37° C., 5% CO2. Then, immediately prior to cell lysis, cells were treated with 12% FBS for 15 min.
After performing experiments according to mTORC1 and mTORC2 protocols, cells were harvested in lysis buffer supplied with the AlphaLISA kits, additionally enriched with Roche cOmplete™ Protease Inhibitor Cocktail (Cat #CO-RO). Thus, cells were lysed using 50 μL of the lysis buffer and incubated for 60 min at 4° C. while shaking. After centrifugation at 4000 rpm for 5 min, experiments were performed according to the AlphaLISA manufacturer's protocol.
Ten microliters of cell lysates were mixed with the acceptor mix. After incubation for 2 h at room temperature, the donor mix was added. After additional incubation at room temperature for 2 hours, AlphaLISA signal was read on PHERAstar® FSX (BMG Labtech) with AlphaPLEX module.
EC50 values were calculated by ExcelFit standard algorithm.

Chain of FKBP12 (P62942 whole entry): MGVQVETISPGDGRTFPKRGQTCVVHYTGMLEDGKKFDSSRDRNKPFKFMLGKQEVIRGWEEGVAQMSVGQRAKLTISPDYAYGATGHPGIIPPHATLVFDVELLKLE

In the case of `COCCS(=O)(=O)NC1CC2CCC(C)C(O)(O2)C(=O)C(=O)N2CCCCC2C(=O)OC(C(C)CC2CCC(OCCO)C(OC)C2)CC(=O)C(C)C=C(C)C(O)C(OC)C(=O)C(C)CC(C)C=CC=CC=C1C` (mixture of isomers) [Compound 16], the Kd (FKBP12) is reported as < 0.3 nM, the Kd (FKBP51) is reported as 10 to 100 nM and the Kd [1] is reported as 300 to 800 nM. For the same compound, the Kd [2] was > 800 nM, the IC50 (mTORC1) was 0.1 to 0.8 nM and the “mTORC2 % inhibition at 1 uM” value (mTORC2) was “B (B>20% and less than 40% inhibition at 1 uM)”.

For `COCCS(=O)(=O)NC1CC2CCC(C)C(O)(O2)C(=O)C(=O)N2CCCCC2C(=O)OC(C(C)CC2CCC(OCCCS(C)(=O)=O)C(OC)C2)CC(=O)C(C)C=C(C)C(O)C(OC)C(=O)C(C)CC(C)C=CC=CC=C1C` (mixture of isomers) [Compound 17], the Kd (FKBP12) was < 0.3 nM, the Kd (FKBP51) was 10 to 100 nM and the Kd [1] was 300 to 800 nM. For the same compound, the Kd [2] was > 800 nM, the IC50 (mTORC1) was 0.1 to 0.8 nM and the “mTORC2 % inhibition at 1 uM” value (mTORC2) was “A (A ≤20% inhibition at 1 micro Molar (uM))”.

In the case of `COCCS(=O)(=O)NC1CC2CCC(C)C(O)(O2)C(=O)C(=O)N2CCCCC2C(=O)OC(C(C)CC2CCC(O)C(OC)C2)CC(=O)C(C)C=C(C)C(O)C(OC)C(=O)C(C)CC(C)C=CC=CC=C1C` (mixture of isomers) [Compound 24], the Kd (FKBP12) is reported as < 0.3 nM, the Kd (FKBP51) is reported as 10 to 100 nM and the Kd [1] is reported as 300 to 800 nM. The Kd [2] was 300 to 800 nM, the IC50 (mTORC1) was 0.1 to 0.8 nM and the “mTORC2 % inhibition at 1 uM” value (mTORC2) was “A (A ≤20% inhibition at 1 micro Molar (uM))”.

For `COCCOCCOC1CC2CCC(C)C(O)(O2)C(=O)C(=O)N2CCCCC2C(=O)OC(C(C)CC2CCC(OCCCS(C)(=O)=O)C(OC)C2)CC(=O)C(C)C=C(C)C(O)C(OC)C(=O)C(C)CC(C)C=CC=CC=C1C` (mixture of isomers) [Compound 65], the Kd (FKBP12) was < 0.3 nM, the Kd (FKBP51) was 10 to 100 nM and the Kd [1] was 300 to 800 nM. The Kd [2] was > 800 nM, the IC50 (mTORC1) was 0.1 to 0.8 nM and the “mTORC2 % inhibition at 1 uM” value (mTORC2) was “A (A ≤20% inhibition at 1 micro Molar (uM))”.

For `COCCOCCOCCOC1CC2CCC(C)C(O)(O2)C(=O)C(=O)N2CCCCC2C(=O)OC(C(C)CC2CCC(OCCCS(C)(=O)=O)C(OC)C2)CC(=O)C(C)C=C(C)C(O)C(OC)C(=O)C(C)CC(C)C=CC=CC=C1C` (mixture of isomers) [Compound 66], the Kd (FKBP12) was 0.3 to 1 nM, the Kd (FKBP51) was 10 to 100 nM and the Kd [1] was > 800 nM. The Kd [2] was > 800 nM, the IC50 (mTORC1) was 0.1 to 0.8 nM and the “mTORC2 % inhibition at 1 uM” value (mTORC2) was “A (A ≤20% inhibition at 1 micro Molar (uM))”.

For `COCCOCCS(=O)(=O)NC1CC2CCC(C)C(O)(O2)C(=O)C(=O)N2CCCCC2C(=O)OC(C(C)CC2CCC(OCCCO)C(OC)C2)CC(=O)C(C)C=C(C)C(O)C(OC)C(=O)C(C)CC(C)C=CC=CC=C1C` (stereo not drawn) [Compound 2], the Kd (FKBP12) was < 0.3 nM, the Kd (FKBP51) was 10 to 100 nM and the Kd [1] was < 300 nM. The Kd [2] was 300 to 800 nM, the IC50 (mTORC1) was < 0.1 nM and the “mTORC2 % inhibition at 1 uM” value (mTORC2) was “A (A ≤20% inhibition at 1 micro Molar (uM))”.

In the case of `COCCOCCS(=O)(=O)NC1CC2CCC(C)C(O)(O2)C(=O)C(=O)N2CCCCC2C(=O)OC(C(C)CC2CCC(OCCCO)C(OC)C2)CC(=O)C(C)C=C(C)C(O)C(OC)C(=O)C(C)CC(C)C=CC=CC=C1C` (stereo not drawn) [Compound 3], the Kd (FKBP12) is reported as 0.3 to 1 nM, the Kd (FKBP51) is reported as > 100 nM and the Kd [1] is reported as > 800 nM. For the same compound, the Kd [2] was > 800 nM, the IC50 (mTORC1) was > 0.8 nM and the “mTORC2 % inhibition at 1 uM” value (mTORC2) was “A (A ≤20% inhibition at 1 micro Molar (uM))”.

For `CO[C@@H]1C[C@H](C[C@@H](C)[C@@H]2CC(=O)[C@H](C)/C=C(\C)[C@@H](O)[C@@H](OC)C(=O)[C@H](C)C[C@H](C)/C=C/C=C/C=C(\C)[C@H](NS(=O)(=O)CC3CCOCC3)C[C@@H]3CC[C@@H](C)[C@@](O)(O3)C(=O)C(=O)N3CCCC[C@H]3C(=O)O2)CC[C@H]1O` [Compound 5], the Kd (FKBP12) was < 0.3 nM, the Kd (FKBP51) was 10 to 100 nM and the Kd [1] was > 800 nM. For the same compound, the Kd [2] was > 800 nM, the IC50 (mTORC1) was 0.1 to 0.8 nM and the “mTORC2 % inhibition at 1 uM” value (mTORC2) was “A (A ≤20% inhibition at 1 micro Molar (uM))”.

With `CO[C@@H]1C[C@H](C[C@@H](C)[C@@H]2CC(=O)[C@H](C)/C=C(\C)[C@@H](O)[C@@H](OC)C(=O)[C@H](C)C[C@H](C)/C=C/C=C/C=C(\C)[C@@H](NS(=O)(=O)CC3CCOCC3)C[C@@H]3CC[C@@H](C)[C@@](O)(O3)C(=O)C(=O)N3CCCC[C@H]3C(=O)O2)CC[C@H]1O` [Compound 6] the Kd (FKBP12) was < 0.3 nM, the Kd (FKBP51) was < 10 nM and the Kd [1] was > 800 nM. For the same compound, the Kd [2] was > 800 nM, the IC50 (mTORC1) was 0.1 to 0.8 nM and the “mTORC2 % inhibition at 1 uM” value (mTORC2) was “A (A ≤20% inhibition at 1 micro Molar (uM))”.

In the case of `COCCOCCS(=O)(=O)N[C@@H]1C[C@@H]2CC[C@@H](C)[C@@](O)(O2)C(=O)C(=O)N2CCCC[C@H]2C(=O)O[C@H]([C@H](C)C[C@@H]2CC[C@@H](O)[C@H](OC)C2)CC(=O)[C@H](C)/C=C(\C)[C@@H](O)[C@@H](OC)C(=O)[C@H](C)C[C@H](C)/C=C/C=C/C=C/1C` [Compound 8], the Kd (FKBP12) is reported as < 0.3 nM, the Kd (FKBP51) is reported as 10 to 100 nM and the Kd [1] is reported as 300 to 800 nM. For the same compound, the Kd [2] was 300 to 800 nM, the IC50 (mTORC1) was 0.1 to 0.8 nM and the “mTORC2 % inhibition at 1 uM” value (mTORC2) was “B (B>20% and less than 40% inhibition at 1 uM)”.
